Laboratory results reported in ChEMBL document CHEMBL1649565, “Besifloxacin, a novel fluoroquinolone, has broad-spectrum in vitro activity against aerobic and anaerobic bacteria” (Antimicrob Agents Chemother, 2009).
Active and inactive are the calls of the source.

Key:
[1] = system: Streptococcus salivarius; test: Antibacterial activity against Streptococcus salivarius assessed as percent susceptible isolates by CLSI M100-S18 method; assay type: functional
[2] = system: Staphylococcus epidermidis
[3] = system: Enterococcus faecalis; test: Antibacterial activity against vancomycin- resistant Enterococcus faecalis by CLSI M100-S18 method; assay type: functional
[4] = system: Clostridium perfringens
[5] = system: Citrobacter freundii; test: Antibacterial activity against Citrobacter freundii assessed as percent susceptible isolates by CLSI M7-A7 method; assay type: functional
[6] = system: Haemophilus influenzae; test: Antibacterial activity against non-ciprofloxacin-susceptible Haemophilus influenzae by CLSI M7-A7 method; assay type: functional
[7] = system: Haemophilus influenzae; test: Antibacterial activity against non-ciprofloxacin-susceptible Haemophilus influenzae assessed as percent susceptible isolates by CLSI M7-A7 method; assay type: functional
[8] = system: Staphylococcus lugdunensis; test: Antibacterial activity against Staphylococcus lugdunensis assessed as percent susceptible isolates by CLSI M100-S18 method; assay type: functional
[9] = system: Streptococcus mitis; test: Antibacterial activity against Streptococcus mitis by CLSI M100-S18 method; assay type: functional
[10] = system: Streptococcus intermedius; test: Antibacterial activity against Streptococcus intermedius assessed as percent susceptible isolates by CLSI M100-S18 method; assay type: functional
[11] = system: Staphylococcus hominis; test: Antibacterial activity against Staphylococcus hominis by CLSI M100-S18 method; assay type: functional
[12] = system: Streptococcus sanguinis; test: Antibacterial activity against Streptococcus sanguinis assessed as percent susceptible isolates by CLSI M100-S18 method; assay type: functional
[13] = system: Pseudomonas aeruginosa; test: Antibacterial activity against ciprofloxacin-susceptible Pseudomonas aeruginosa by CLSI M7-A7 method; assay type: functional
[14] = system: Staphylococcus lugdunensis; test: Antibacterial activity against Staphylococcus lugdunensis by CLSI M100-S18 method; assay type: functional
[15] = system: Streptococcus pneumoniae; test: Antibacterial activity against non-levofloxacin susceptible Streptococcus pneumoniae by CLSI M100-S18 method; assay type: functional
[16] = system: Legionella pneumophila; test: Antibacterial activity against Legionella pneumophila by CLSI M7-A7 method; assay type: functional
[17] = system: Citrobacter koseri; test: Antibacterial activity against Citrobacter koseri by CLSI M7-A7 method; assay type: functional
[18] = system: Prevotella sp.; test: Antibacterial activity against Prevotella sp. by CLSI M11-A7 method; assay type: functional
[19] = system: Bacteroides fragilis; test: Antibacterial activity against Bacteroides fragilis by CLSI M11-A7 method; assay type: functional
[20] = system: Streptococcus anginosus; test: Antibacterial activity against Streptococcus anginosus assessed as percent susceptible isolates by CLSI M100-S18 method; assay type: functional
[21] = system: Klebsiella aerogenes; test: Antibacterial activity against Enterobacter aerogenes by CLSI M7-A7 method; assay type: functional
[22] = system: Cutibacterium acnes; test: Antibacterial activity against Propionibacterium acnes assessed as percent susceptible isolates by CLSI M11-A7 method; assay type: functional
[23] = system: Haemophilus influenzae; test: Antibacterial activity against ciprofloxacin-susceptible Haemophilus influenzae by CLSI M7-A7 method; assay type: functional
[24] = system: Klebsiella oxytoca; test: Antibacterial activity against Klebsiella oxytoca by CLSI M7-A7 method; assay type: functional
[25] = system: Streptococcus oralis; test: Antibacterial activity against Streptococcus oralis assessed as percent susceptible isolates by CLSI M100-S18 method; assay type: functional
[26] = system: Streptococcus mitis; test: Antibacterial activity against Streptococcus mitis assessed as percent susceptible isolates by CLSI M100-S18 method; assay type: functional
[27] = system: Staphylococcus aureus; test: Antibacterial activity against ciprofloxacin-susceptible and methicillin-resistant Staphylococcus aureus by CLSI M100-S18 method; assay type: functional
[28] = system: Listeria monocytogenes; test: Antibacterial activity against Listeria monocytogenes by CLSI M100-S18 method; assay type: functional
[29] = system: Streptococcus equinus; test: Antibacterial activity against Streptococcus bovis assessed as percent susceptible isolates by CLSI M100-S18 method; assay type: functional
[30] = system: Streptococcus anginosus; test: Antibacterial activity against Streptococcus anginosus by CLSI M100-S18 method; assay type: functional
[31] = system: Pseudomonas aeruginosa; test: Antibacterial activity against non-ciprofloxacin-susceptible Pseudomonas aeruginosa by CLSI M7-A7 method; assay type: functional
[32] = system: Streptococcus pneumoniae; test: Antibacterial activity against non-levofloxacin susceptible Streptococcus pneumoniae assessed as percent susceptible isolates by CLSI M100-S18 method; assay type: functional
[33] = system: Neisseria meningitidis; test: Antibacterial activity against Neisseria meningitidis by CLSI M7-A7 method; assay type: functional
[34] = system: Proteus vulgaris; test: Antibacterial activity against Proteus vulgaris by CLSI M7-A7 method; assay type: functional
[35] = system: Streptococcus constellatus; test: Antibacterial activity against Streptococcus constellatus assessed as percent susceptible isolates by CLSI M100-S18 method; assay type: functional
[36] = system: Enterococcus faecium; test: Antibacterial activity against vancomycin- resistant Enterococcus faecium by CLSI M100-S18 method; assay type: functional
[37] = system: Peptostreptococcus sp.; test: Antibacterial activity against Peptostreptococcus sp. by CLSI M11-A7 method; assay type: functional
[38] = system: Moraxella catarrhalis; test: Antibacterial activity against Moraxella catarrhalis assessed as percent susceptible isolates by CLSI M7-A7 method; assay type: functional
[39] = system: Pseudomonas aeruginosa; test: Antibacterial activity against non-ciprofloxacin-susceptible Pseudomonas aeruginosa assessed as percent susceptible isolates by CLSI M7-A7 method; assay type: functional
[40] = system: Acinetobacter lwoffii; test: Antibacterial activity against Acinetobacter lwoffii assessed as percent susceptible isolates by CLSI M7-A7 method; assay type: functional
[41] = system: Stenotrophomonas maltophilia; test: Antibacterial activity against levofloxacin-susceptible Stenotrophomonas maltophilia assessed as assessed as percent susceptible isolates by CLSI M7-A7 method; assay type: functional
[42] = system: Acinetobacter baumannii; test: Antibacterial activity against Acinetobacter baumannii assessed as percent susceptible isolates by CLSI M7-A7 method; assay type: functional
[43] = system: Pseudomonas aeruginosa; test: Antibacterial activity against ciprofloxacin-susceptible Pseudomonas aeruginosa assessed as percent susceptible isolates by CLSI M7-A7 method; assay type: functional
[44] = system: Stenotrophomonas maltophilia; test: Antibacterial activity against non-levofloxacin susceptible Stenotrophomonas maltophilia assessed as percent susceptible isolates by CLSI M7-A7 method; assay type: functional
[45] = system: Acinetobacter calcoaceticus; test: Antibacterial activity against Acinetobacter calcoaceticus assessed as percent susceptible isolates by CLSI M7-A7 method; assay type: functional

N[C@@H]1CCCCN(c2c(F)cc3c(=O)c(C(=O)O)cn(C4CC4)c3c2Cl)C1 [BESIFLOXACIN]
inactive: MIC90 [2] | Activity [4] | Activity [5] | Activity [7] | Activity [8] | Activity [22] | Activity [32]
0.06%: Activity [1] | Activity [10] | Activity [12] | Activity [20] | Activity [25] | Activity [26] | Activity [29] | Activity [35]
0.12 µg/mL: MIC50 [3] | MIC90 [9] | MIC50 [24] | MIC90 [27] | MIC50 [28] | MIC90 [28] | MIC90 [30] | MIC50 [34]
0.008 µg/mL: MIC50 [33]
2 µg/mL: MIC90 [3] | MIC50 [6] | MIC90 [6] | MIC50 [36]
0.03 µg/mL: MIC50 [16] | MIC90 [16] | MIC90 [23]
4 µg/mL: MIC90 [13] | MIC90 [18]
0.5 µg/mL: MIC90 [14] | MIC50 [15] | MIC90 [15] | MIC50 [19] | MIC90 [37]
0.06 µg/mL: MIC50 [9] | MIC50 [14] | MIC50 [17] | MIC50 [30]
0.25 µg/mL: MIC50 [11] | MIC90 [17] | MIC50 [21] | MIC90 [34] | MIC50 [37]
0.015 µg/mL: MIC50 [23] | MIC [27] | MIC50 [27] | MIC90 [33]
64 µg/mL: MIC90 [31]
1 µg/mL: MIC90 [11] | MIC50 [13] | MIC50 [18] | MIC90 [19] | MIC90 [24]
8 µg/mL: MIC90 [21] | MIC90 [36]
16 µg/mL: MIC50 [31]

NC[C@H]1O[C@H](O[C@H]2[C@H](O)[C@@H](O[C@H]3O[C@H](CO)[C@@H](O)[C@H](N)[C@H]3O)[C@H](N)C[C@@H]2N)[C@H](N)C[C@@H]1O [TOBRAMYCIN]
44.8%: Activity [39]
0.06 µg/mL: MIC50 [9]
99%: Activity [5]
> 128 µg/mL: MIC90 [3] | MIC50 [36] | MIC90 [36]
8 µg/mL: MIC90 [6] | MIC50 [15] | MIC90 [21] | MIC90 [23] | MIC50 [31]
95.5%: Activity [1] | Activity [10] | Activity [12] | Activity [20] | Activity [25] | Activity [26] | Activity [29] | Activity [35]
0.12 µg/mL: MIC50 [14] | MIC50 [16] | MIC50 [28] | MIC90 [28]
> 8 µg/mL: MIC90 [9] | MIC90 [31]
32 µg/mL: MIC90 [11] | MIC90 [14] | MIC90 [30]
94%: Activity [40]
1 µg/mL: MIC90 [16] | MIC90 [17] | MIC90 [24] | MIC90 [27] | MIC50 [34]
100%: Activity [38]
1.9%: Activity [41]
16 µg/mL: MIC50 [3] | MIC50 [11] | MIC90 [15] | MIC50 [30]
0.5 µg/mL: MIC50 [17] | MIC50 [21] | MIC50 [24] | MIC50 [27]
4 µg/mL: MIC50 [6] | MIC90 [34]
2 µg/mL: MIC50 [13] | MIC90 [13] | MIC50 [23]
46.7%: Activity [8]
0%: Activity [44]
92.6%: Activity [45]
95.2%: Activity [43]
inactive: MIC90 [2] | Activity [7] | Activity [32]
60.4%: Activity [42]
